These results are taken from US5591741A, “Fungicidal spiroheterocyclic derivatives” (American Cyanamid Company, priority 1993, dated 1997).

The subject of one experiment is Plasmopara viticola. The experiment can be described thus: Antisporulant activity against vine downy mildew (PVA). Format: in vivo. To be noted: vine leaves, antisporulant foliar spray, 600 ppm, 750 l/ha. In outline: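 Cabernet Sauvignon vines (~8 cm) inoculated on lower leaf surfaces with 5×10^4 zoosporangia/ml, held 24 h at 21° C high humidity then 24 h glasshouse. Infected leaves sprayed underside with 600 ppm compound in 1:1 water/acetone, 0.04% Tween 20, 750 l/ha; 96 h glasshouse, 24 h humidity. Sporulating leaf area rated versus control.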

The next experiment relates to Alternaria solani. The experiment in a line: Activity against tomato early blight (AS). The experiment is classed as in vivo. The following applies: Table VI; tomato seedlings, contact prophylactic foliar spray, 4 days. In outline:
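Foliar contact prophylactic spray on tomato seedlings (cv Outdoor Girl, second true leaf expanded) in acetone/water 50:50 with 0.04% Tween 20; 24 h at 20° C, 40% R.H., then inoculation with 10^4 spores/ml A. solani conidia. Kept moist at 21° C; lesion cover rated 4 days post-inoculation against untreated or diluent-sprayed controls.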

The next experiment deals with Botrytis cinerea. The experiment in a line: Direct protectant activity against broad bean grey mould (BCB). The experiment is classed as in vivo. The following applies: direct protectant foliar spray, 600 ppm, 4 days. In outline: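 Broad bean plants (cv The Sutton, two leaf pairs) sprayed on upper leaf surfaces at 600 ppm, then inoculated 24 h later with 10^6 conidia/ml. Kept 4 days at 22 °C, high humidity; disease control rated from % leaf area with lesions against untreated or diluent controls.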

Another experiment concerns Leptosphaeria nodorum. The experiment can be described thus: Activity against wheat leafspot (LN). The following applies: direct therapeutic foliar spray, 600 ppm, 6-8 days. Format: in vivo. In outline: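 Wheat cv Norman at single-leaf stage spray-inoculated with 1.5×10^6 conidia/ml, held 24 h at high humidity, then sprayed therapeutically with test compound at 600 ppm. Kept 6-8 days at 22° C, 70% humidity; lesion density per leaf rated against untreated or diluent-sprayed controls.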

The subject of experiment [1] is Erysiphe graminis f.sp. hordei. The experiment can be described thus: Activity against barley powdery mildew, direct therapeutic (EGT). The experiment is classed as in vivo. To be noted: direct therapeutic foliar spray, 600 ppm, up to 7 days. Summed up: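 Barley seedlings (cv. Golden Promise, single-leaf stage) were dusted with mildew conidia one day before a therapeutic foliar spray of 600 ppm compound. Plants were kept at 18 °C and 40% humidity for up to 7 days, and sporulating leaf area was rated against untreated or diluent-sprayed controls.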

Experiment [2] deals with Erysiphe graminis f.sp. hordei. The experiment can be described thus: Direct protectant activity against barley powdery mildew (EGP). The experiment is classed as in vivo. To be noted: direct protectant foliar spray, 8 days. In outline: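 Barley seedlings (cv Golden Promise, single-leaf stage) were foliar-sprayed, held 24 h at 18 °C/40% RH, then dusted with mildew conidia. After 8 days at 18 °C/40% RH, sporulating leaf area was scored as a rating against untreated or diluent-sprayed controls.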

The test system of another experiment is Phytophthora infestans. The experiment is classed as in vivo. The following applies: tomato, direct protectant foliar spray.
The subject of experiment [3] is Pseudocercosporella herpotrichoides. The experiment can be described thus: Activity against wheat eyespot in-vitro (PHI). The following applies: 10 ppm, 10 days, 20° C., mycelial growth. The experiment is classed as cell-based. Summed up: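 P. herpotrichoides mycelial fragments (5×10^4/ml) grown in half-strength PDB with compound at 10 ppm final, added from acetone. Incubated 10 days at 20 °C; mycelial growth rated against untreated or diluent controls.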

For a further experiment, the system named is Rhizoctonia solani. The experiment can be described thus: Activity against Rhizoctonia in-vitro (RSI). The experiment is classed as cell-based. To be noted: 10 ppm, 10 days, 20° C., mycelial growth. In outline:
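R. solani mycelial fragments (5×10^4/ml) in half-strength Potato Dextrose Broth with compound added from acetone to 10 ppm final. Mycelial growth assessed after 10 days at 20° C, rated against untreated or diluent control.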

The subject of a further experiment is Venturia inaequalis. The experiment can be described thus: Activity against apple scab in-vitro (VII). Format: cell-based. The following applies: 10 ppm, 10 days, 20° C., mycelial growth. Summed up:
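Compound in acetone was tested at 10 ppm final in half-strength Potato Dextrose Broth inoculated with V. inaequalis mycelial fragments and spores at 5×10^4 propagules/ml. After 10 days at 20° C, mycelial growth was rated against untreated or diluent controls.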

The next experiment relates to Pyricularia oryzae. Format: in vivo. To be noted: rice seedlings, direct therapeutic foliar spray, 600 ppm, 4-5 days.

As for `CC(C)(C)c1ccc(NC2COC3(CCC(C(C)(C)C)CC3)C2)cc1` (stereo not shown) [Compound 24], the “disease control rating PVA” value in the experiment with Plasmopara viticola is reported as 0 (less than 50% disease control). In addition, the “disease control rating AS” value in the experiment on Alternaria solani is on record as 0 (less than 50% disease control). For the same molecule, in the experiment with Botrytis cinerea, the “disease control rating BCB” value was 0 (less than 50% disease control). Further, the “disease control rating LN” value in the experiment with Leptosphaeria nodorum is listed as 0 (less than 50% disease control). Moreover, the “disease control rating EGT” value in [1] was 0 (less than 50% disease control). Moreover, in experiment [2], the “disease control rating EGP” value was 0 (less than 50% disease control). The “disease control rating PIP” value in the experiment with Phytophthora infestans is listed as 0 (less than 50% disease control). In addition, in [3], the “disease control rating PHI” value is 0 (less than 50% disease control). In addition, the “disease control rating RSI” value in the experiment with Rhizoctonia solani was 0 (less than 50% disease control). Moreover, the “disease control rating VII” value with Venturia inaequalis is reported as 0 (less than 50% disease control). Moreover, in the experiment on Pyricularia oryzae, the “disease control rating PO” value is 0 (less than 50% disease control).

As to `CCCCc1ccc(NC2COC3(CCC(C(C)(C)C)CC3)C2)cc1` (stereo not shown) [Compound 25], the “disease control rating PVA” value with Plasmopara viticola is given as 0 (less than 50% disease control). For the same molecule, the “disease control rating AS” value in the experiment with Alternaria solani was 0 (less than 50% disease control). For the same molecule, the “disease control rating BCB” value in the experiment with Botrytis cinerea is on record as 0 (less than 50% disease control). Moreover, in the experiment on Leptosphaeria nodorum, the “disease control rating LN” value is given as 0 (less than 50% disease control). Also, the “disease control rating EGT” value in [1] was 0 (less than 50% disease control). Besides, the “disease control rating EGP” value in experiment [2] is recorded as 0 (less than 50% disease control). The “disease control rating PIP” value in the experiment on Phytophthora infestans was 0 (less than 50% disease control). Besides, the “disease control rating PHI” value in experiment [3] is 0 (less than 50% disease control). Further, the “disease control rating RSI” value in the experiment with Rhizoctonia solani is 0 (less than 50% disease control). Moreover, the “disease control rating VII” value with Venturia inaequalis is listed as 0 (less than 50% disease control). For the same molecule, in the experiment with Pyricularia oryzae, the “disease control rating PO” value is given as 0 (less than 50% disease control).

As for `CCCCc1ccc(CNC2COC3(CCC(C(C)(C)C)CC3)C2)cc1` (stereo not shown) [Compound 26], the “disease control rating PVA” value in the experiment on Plasmopara viticola is on record as 0 (less than 50% disease control). The “disease control rating AS” value with Alternaria solani is recorded as 1 (about 50-80% disease control). Also, the “disease control rating BCB” value in the experiment on Botrytis cinerea is given as 0 (less than 50% disease control). Besides, in the experiment on Leptosphaeria nodorum, the “disease control rating LN” value is reported as 0 (less than 50% disease control). Further, the “disease control rating EGT” value in experiment [1] is reported as 2 (greater than 80% disease control). Besides, in experiment [2], the “disease control rating EGP” value is 2 (greater than 80% disease control). Also, the “disease control rating PIP” value in the experiment with Phytophthora infestans is given as 0 (less than 50% disease control). For the same molecule, the “disease control rating PHI” value in [3] is given as 1 (about 50-80% disease control). The “disease control rating RSI” value with Rhizoctonia solani is recorded as 0 (less than 50% disease control). Also, the “disease control rating VII” value with Venturia inaequalis was 1 (about 50-80% disease control). Further, the “disease control rating PO” value in the experiment with Pyricularia oryzae is reported as 0 (less than 50% disease control).

`CCCCCCNC1COC2(CCC(C(C)(C)C)CC2)C1` (stereo not shown) [Compound 27]: the “disease control rating PVA” value in the experiment on Plasmopara viticola is given as 0 (less than 50% disease control). In the experiment on Alternaria solani, the “disease control rating AS” value is 0 (less than 50% disease control). Also, the “disease control rating BCB” value in the experiment with Botrytis cinerea is reported as 0 (less than 50% disease control). In the experiment on Leptosphaeria nodorum, the “disease control rating LN” value is on record as 0 (less than 50% disease control). For the same molecule, the “disease control rating EGT” value in experiment [1] is reported as 2 (greater than 80% disease control). Further, in [2], the “disease control rating EGP” value was 2 (greater than 80% disease control). Moreover, the “disease control rating PIP” value in the experiment with Phytophthora infestans is on record as 0 (less than 50% disease control). In addition, the “disease control rating PHI” value in experiment [3] is 1 (about 50-80% disease control). In the experiment with Rhizoctonia solani, the “disease control rating RSI” value is 0 (less than 50% disease control). Further, in the experiment with Venturia inaequalis, the “disease control rating VII” value is given as 1 (about 50-80% disease control). Besides, in the experiment on Pyricularia oryzae, the “disease control rating PO” value is recorded as 0 (less than 50% disease control).

As for `Cc1ccc(CNC2COC3(CCC(C(C)(C)C)CC3)C2)cc1` (stereo not shown) [Compound 28], in the experiment on Plasmopara viticola, the “disease control rating PVA” value is reported as 0 (less than 50% disease control). Further, the “disease control rating AS” value with Alternaria solani is 0 (less than 50% disease control). Also, in the experiment on Botrytis cinerea, the “disease control rating BCB” value is reported as 0 (less than 50% disease control). Also, the “disease control rating LN” value with Leptosphaeria nodorum is 0 (less than 50% disease control). Moreover, the “disease control rating EGT” value in experiment [1] is 2 (greater than 80% disease control). In experiment [2], the “disease control rating EGP” value is given as 2 (greater than 80% disease control). Also, the “disease control rating PIP” value with Phytophthora infestans is listed as 0 (less than 50% disease control). Moreover, in experiment [3], the “disease control rating PHI” value was 0 (less than 50% disease control). Moreover, in the experiment on Rhizoctonia solani, the “disease control rating RSI” value was 0 (less than 50% disease control). Also, in the experiment with Venturia inaequalis, the “disease control rating VII” value was 2 (greater than 80% disease control). Also, the “disease control rating PO” value in the experiment with Pyricularia oryzae was 0 (less than 50% disease control).

Take `CC(C)(C)C1CCC2(CC1)CC(NCc1ccc(Br)cc1)CO2` (stereo not shown) [Compound 29]: the “disease control rating PVA” value with Plasmopara viticola is 0 (less than 50% disease control). Moreover, the “disease control rating AS” value in the experiment on Alternaria solani is 0 (less than 50% disease control). Besides, the “disease control rating BCB” value in the experiment with Botrytis cinerea is 0 (less than 50% disease control). Besides, the “disease control rating LN” value in the experiment on Leptosphaeria nodorum is recorded as 0 (less than 50% disease control). The “disease control rating EGT” value in experiment [1] is listed as 2 (greater than 80% disease control). Also, in [2], the “disease control rating EGP” value is recorded as 2 (greater than 80% disease control). In addition, in the experiment on Phytophthora infestans, the “disease control rating PIP” value is 0 (less than 50% disease control). Further, the “disease control rating PHI” value in [3] is 0 (less than 50% disease control). Moreover, in the experiment on Rhizoctonia solani, the “disease control rating RSI” value is on record as 0 (less than 50% disease control). In addition, in the experiment with Venturia inaequalis, the “disease control rating VII” value is 2 (greater than 80% disease control). Further, the “disease control rating PO” value in the experiment on Pyricularia oryzae is 0 (less than 50% disease control).

As to `CC(C)(C)C1CCC2(CC1)CC(NCc1ccc(F)cc1)CO2` (stereo not shown) [Compound 30], the “disease control rating PVA” value in the experiment on Plasmopara viticola was 0 (less than 50% disease control). In addition, in the experiment on Alternaria solani, the “disease control rating AS” value is on record as 0 (less than 50% disease control). In addition, the “disease control rating BCB” value in the experiment on Botrytis cinerea is reported as 0 (less than 50% disease control). In the experiment with Leptosphaeria nodorum, the “disease control rating LN” value was 0 (less than 50% disease control). Also, the “disease control rating EGT” value in experiment [1] is 2 (greater than 80% disease control). The “disease control rating EGP” value in experiment [2] is 2 (greater than 80% disease control). Moreover, in the experiment with Phytophthora infestans, the “disease control rating PIP” value is 0 (less than 50% disease control). Moreover, the “disease control rating PHI” value in experiment [3] is given as 0 (less than 50% disease control). Also, the “disease control rating RSI” value with Rhizoctonia solani is recorded as 0 (less than 50% disease control). Moreover, the “disease control rating VII” value in the experiment with Venturia inaequalis was 2 (greater than 80% disease control). Moreover, in the experiment with Pyricularia oryzae, the “disease control rating PO” value is 0 (less than 50% disease control).

Consider `CC(C)(C)C1CCC2(CC1)CC(NCc1ccccc1)CO2` (stereo not shown) [Compound 31], for which, in the experiment on Plasmopara viticola, the “disease control rating PVA” value was 2 (greater than 80% disease control). In addition, the “disease control rating AS” value in the experiment with Alternaria solani is 1 (about 50-80% disease control). In the experiment with Botrytis cinerea, the “disease control rating BCB” value was 0 (less than 50% disease control). Further, in the experiment on Leptosphaeria nodorum, the “disease control rating LN” value is 0 (less than 50% disease control). Further, in [1], the “disease control rating EGT” value is reported as 2 (greater than 80% disease control). In addition, the “disease control rating EGP” value in experiment [2] is 2 (greater than 80% disease control). Besides, in the experiment with Phytophthora infestans, the “disease control rating PIP” value is 0 (less than 50% disease control). The “disease control rating PHI” value in experiment [3] is 0 (less than 50% disease control). Moreover, the “disease control rating RSI” value in the experiment on Rhizoctonia solani is 0 (less than 50% disease control). Moreover, in the experiment with Venturia inaequalis, the “disease control rating VII” value was 1 (about 50-80% disease control). Further, in the experiment on Pyricularia oryzae, the “disease control rating PO” value is given as 0 (less than 50% disease control).
